# Test results taken from patent publication US20240116918A1, “SUBSTITUTED TRICYCLIC COMPOUND AS PRMT5 INHIBITOR AND USE THEREOF” (NANJING SANHOME PHARMACEUTICAL CO., LTD., priority 2019, published 2024).
# Assays:
# PRMT5 = PRMT5 (Homo sapiens (Human), UniProt O14744); assay: In vitro evaluation of kinase activity (PRMT5 enzymatic assay, [3H]-SAM FlashPlate); assay type: biochemical; settings: polypeptide substrate H4(1-21)S1ac 100 nM, [3H]-SAM 250 nM, 25° C., 60 min; read-out: Enzyme IC50 PRMT5
# PRMT5, sequence (O14744 whole entry): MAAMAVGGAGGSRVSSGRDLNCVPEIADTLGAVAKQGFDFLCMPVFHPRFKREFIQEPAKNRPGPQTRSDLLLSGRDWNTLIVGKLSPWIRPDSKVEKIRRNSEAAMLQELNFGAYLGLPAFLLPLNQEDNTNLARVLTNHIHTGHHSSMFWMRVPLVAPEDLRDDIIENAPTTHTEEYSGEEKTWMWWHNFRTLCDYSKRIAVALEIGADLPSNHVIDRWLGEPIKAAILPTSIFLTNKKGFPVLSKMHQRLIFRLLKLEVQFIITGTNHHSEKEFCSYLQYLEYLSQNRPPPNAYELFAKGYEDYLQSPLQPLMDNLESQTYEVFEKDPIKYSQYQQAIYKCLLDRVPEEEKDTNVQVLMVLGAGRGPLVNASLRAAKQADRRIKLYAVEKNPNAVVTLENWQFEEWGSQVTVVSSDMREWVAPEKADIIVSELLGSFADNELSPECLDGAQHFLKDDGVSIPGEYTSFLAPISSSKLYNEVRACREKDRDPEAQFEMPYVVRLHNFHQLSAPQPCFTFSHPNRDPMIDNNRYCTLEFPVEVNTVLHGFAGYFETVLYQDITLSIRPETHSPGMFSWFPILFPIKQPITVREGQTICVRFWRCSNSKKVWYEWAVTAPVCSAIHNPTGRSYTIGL
# PRMT5, sequence (Q9BQA1 whole entry partner): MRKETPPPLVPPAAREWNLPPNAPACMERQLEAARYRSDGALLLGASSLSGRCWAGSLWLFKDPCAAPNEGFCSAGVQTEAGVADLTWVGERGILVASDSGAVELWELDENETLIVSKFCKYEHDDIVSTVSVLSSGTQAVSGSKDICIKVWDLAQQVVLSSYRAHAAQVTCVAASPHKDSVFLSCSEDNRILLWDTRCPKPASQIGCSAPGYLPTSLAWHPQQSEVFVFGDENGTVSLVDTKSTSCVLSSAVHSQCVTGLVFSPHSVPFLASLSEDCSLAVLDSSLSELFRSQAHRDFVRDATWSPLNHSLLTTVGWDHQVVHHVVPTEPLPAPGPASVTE
# Method: Compounds: the compounds of the present invention prepared in the above examples. Each compound was formulated into a 10 mM stock solution with DMSO, and finally diluted into 10 concentrations for detection, with the final concentrations being 10000.00 nM, 3333.33 nM, 1111.11 nM, 370.37 nM, 123.46 nM, 41.15 nM, 13.72 nM, 4.57 nM, 1.52 nM, and 0.51 nM.
# Reagents and consumables: PRMTS, purchased from Active Motif, Cat. No. 31921; polypeptide substrate H4(1-21)S1ac, purchased from Gill Biochemical (Shanghai) Co., Ltd., Cat. No. 342095; [^3H]-SAM, purchased From PerkinElmer, Cat. No. NET155V001MC; SAM, purchased from Sigma, Cat. No. A7007-100MG; SAH, purchased from Sigma, Cat. No. A9384-25MG; DTT, purchased from Sangon Bioengineering (Shanghai) Co., Ltd., Cat. No. A620058-0005. Corning-3657, purchased from Corning, Cat. No. 3657; Echo Qualified 384-Well, purchased from Labcyte, Cat. No. P-05525; FlashPlate, purchased from Perkin Elmer, Cat. No. SMP410J001PK.
# 2.1. Preparation of reaction buffer and reaction stop solution: the composition of 1× reaction buffer was 10 mM Tris-HCl, pH 8.0; 0.01% Tween-20; and 1 mM DTT. The composition of the reaction stop solution was 125 μM […] solution.
# The compounds were dissolved in 100% DMSO to prepare 10 mM stock solutions and then diluted to desired concentrations on an Echo 384 well plate.
# 250 nL of the compounds diluted above were transferred from the Echo 384 well plate to a 384 well reaction plate using the Echo550 instrument.
# PRMT5 was added to 1× reaction buffer to form 1.67× enzyme solution.
# The polypeptide substrate and [^3H]-SAM were added to 1× reaction buffer to form 2.5× substrate solution (the final concentrations were 100 nM and 250 nM, respectively).
# 15 μL of 1.67× enzyme solution was added to the wells of a 384 well reaction plate. For control wells without enzymatic activity, the enzyme solution was replaced with 15 μL of 1× reaction buffer. The plate was centrifuged at 1000 rpm for 1 min and incubated at room temperature for 15 min. […]
# hERG potassium channel = hERG potassium channel (Homo sapiens (Human), UniProt Q12809)
# hERG potassium channel, sequence (Q12809 whole entry): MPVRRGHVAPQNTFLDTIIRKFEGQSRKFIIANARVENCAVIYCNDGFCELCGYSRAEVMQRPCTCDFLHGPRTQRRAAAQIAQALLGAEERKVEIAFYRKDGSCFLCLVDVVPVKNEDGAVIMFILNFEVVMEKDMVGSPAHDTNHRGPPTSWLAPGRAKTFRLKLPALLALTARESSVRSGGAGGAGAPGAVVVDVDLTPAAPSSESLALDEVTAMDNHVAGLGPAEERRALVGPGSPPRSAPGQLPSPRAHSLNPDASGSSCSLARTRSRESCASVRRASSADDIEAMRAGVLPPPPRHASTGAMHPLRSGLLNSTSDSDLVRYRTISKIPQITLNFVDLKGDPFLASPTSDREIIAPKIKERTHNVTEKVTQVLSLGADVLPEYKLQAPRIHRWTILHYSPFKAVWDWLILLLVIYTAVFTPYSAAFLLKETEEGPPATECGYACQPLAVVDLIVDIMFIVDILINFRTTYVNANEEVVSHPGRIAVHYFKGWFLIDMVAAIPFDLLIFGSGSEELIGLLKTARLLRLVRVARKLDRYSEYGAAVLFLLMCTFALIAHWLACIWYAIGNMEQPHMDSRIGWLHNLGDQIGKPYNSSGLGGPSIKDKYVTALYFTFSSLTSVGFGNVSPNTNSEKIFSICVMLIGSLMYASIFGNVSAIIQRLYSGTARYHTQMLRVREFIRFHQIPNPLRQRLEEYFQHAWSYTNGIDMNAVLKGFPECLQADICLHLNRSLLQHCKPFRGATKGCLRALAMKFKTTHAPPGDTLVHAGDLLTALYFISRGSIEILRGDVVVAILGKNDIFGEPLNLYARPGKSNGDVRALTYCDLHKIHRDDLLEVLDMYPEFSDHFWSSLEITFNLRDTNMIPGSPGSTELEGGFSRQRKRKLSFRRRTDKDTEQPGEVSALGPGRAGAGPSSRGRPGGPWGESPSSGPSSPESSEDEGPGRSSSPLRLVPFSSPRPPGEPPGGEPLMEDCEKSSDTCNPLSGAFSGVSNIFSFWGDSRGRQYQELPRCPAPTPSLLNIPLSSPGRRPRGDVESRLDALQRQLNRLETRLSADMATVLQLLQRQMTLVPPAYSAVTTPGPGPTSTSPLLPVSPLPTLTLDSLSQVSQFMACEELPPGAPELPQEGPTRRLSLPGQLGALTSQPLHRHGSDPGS
# Method: Preparation of test solvents: preparation of extracellular fluid (mM): 137 NaCl, 4 KCl, 1.8 CaCl2, 1 MgCl2, 10 glucose and 10 HEPES (pH 7.4); preparation of intracellular fluid (mM): 130 KCl, 1 MgCl2, 5 EGTA, 5 MgATP and 10 HEPES (pH 7.2); preparation of negative control: extracellular fluid+0.3% DMSO; positive control: quinidine.
# Compound treatment: The compound was weighed and dissolved in DMSO to prepare a 10 mM stock solution, which was diluted with DMSO to form secondary stock solutions with concentrations of 3.3, 1.1, 0.37 and 0.12 mM. 90 μL each of the stock solution and the secondary stock solutions was diluted into 30 mL of extracellular fluid for electrophysiological detection. The final concentrations of the compound were 30, 10, 3.3, 1.1 and 0.37 μM, and the final concentration of DMSO was 3:1000.
# Stably transfected cell culture: The cell line was originated from HEK-293 cells overexpressing hERG potassium ion channel. […] The cells were cultured in an incubator at 37° C. and 5% CO2. When the cell density reaches 80% of the petri dish, the cells were first pre-washed with phosphate buffered saline (PBS), then digested with trypsin/EDTA for 2-3 min. Cell culture medium was added to stop the digestion. The cells were gently blown down and transferred to a centrifuge tube, and centrifuged at 1000 rpm for 3 min. The supernatant was discarded, cell culture medium was added, and the cells were mixed uniformly by gentle tapping. After that, the mixture was transferred to a petri dish for subculture, or the cells were dripped on a round glass slide and placed on a petri dish for the cells to adhere for experiments.
# Experiments on electrophysiological manual patch-clamp system: The stably transfected cells were inoculated on a glass slide with a cell density lower than 50%, and cultured overnight. The experimental cells were transferred to a bath of about 1 mL embedded in an inverted microscope platform, and the extracellular fluid was perfused at a perfusion rate of 2.7 mL/min. After 5 minutes of stabilization, the experiment was started. Membrane currents were recorded using HEKA EPC-10 patch clamp amplifier and [sequence] acquisition system. All the experiments were performed at room temperature (22-24° C.). Electrodes were drawn straight using P-97 microelectrode drawing instrument (BF150-110-10) in the experiments. The inner diameter of the electrode was 1-1.5 mm, and the pipette resistance after filling with the inner liquid was 2-4 MΩ. The electrophysiological stimulation scheme of hERG potassium channel included: first setting the membrane voltage at −80 mV, applying a stimulation to the cells at +20 mV voltage for 2 s to activate the hERG potassium channel, and then repolarizing to −50 mV for 5 s to generate an outward tail current. The stimulation frequency was once every 15 s. The current value was the peak value of the tail current. The channel currents were recorded in the whole-cell recording mode. Firstly, the extracellular fluid was perfused (about 2 mL per minute) while recording was continued. When the current was stabilized (the current decay (Run-Down) was less than 5% within 5 minutes), the peak value of the tail current was the control current value. Then, the extracellular fluid containing the drug to be tested was perfused while the recording was continued until the inhibitory effect of the drug on the hERG current reached a steady state. At this time, the peak value of the tail current was the current value after drug addition. […]
SMILES,IC50 (PRMT5) [nM],inhibitory effect on the hERG potassium channel (in words) (hERG potassium channel)
"CC(=O)N1CCC(Nc2cc3c(cn2)C2(CC2)CN(C[C@H](O)CN2CCc4ccccc4C2)C3=O)CC1 [Example 1, (R)-7′-((1-acetylpiperidin-4-yl)amino)-2′-(3-(3,4-dihydroisoquinolin-2(1H)-yl)-2-hydroxypropyl)-2′,3′-dihydro-1′H-spiro[cyclopropane-1,4′-[2,6]naphthyridin]-1′-one]",32.7,–
"CC(=O)N1CC2(CC(Nc3cc4c(cn3)C3(CC3)CN(C[C@H](O)CN3CCc5ccccc5C3)C4=O)C2)C1 [Example 2, (R)-7′-((2-acetyl-2-azaspiro[3.3]hept-6-yl)amino)-2′-(3-(3,4-dihydroisoquinolin-2(1H)-yl)-2-hydroxypropyl)-2′,3′-dihydro-1′H-spiro[cyclopropane-1,4′-[2,6]naphthyridin]-1-one]",49.7,weak inhibitory effect
